Several values for one entry are separate records, joined by “and”; a condition that tells them apart may be missing. Identical values can stand only once. Like-named read-outs stand apart in the source and are kept apart here.
Assays:
[1] = test system: Salmonella on whole chicken with feathers; assay: Salmonella counts on whole chicken with feathers; type: cell-based; settings: whole chickens with feathers soaked in 72 L at 21° C. for 5 min, chickens 1-5
S. enteritidis = type: cell-based, Salmonella enteritidis
L. monocytogenes = type: cell-based, Listeria monocytogenes
[2] = test system: spores of Bacillus anthracis Sterne; type: cell-based, Bacillus anthracis Sterne (34F2)
S. typhimurium DT 104 = type: cell-based, Salmonella typhimurium DT104

Compound | S. enteritidis counts at 0 min (S. enteritidis) [log CFU/ml] | S. enteritidis counts at 2 min (S. enteritidis) [log CFU/ml] | S. enteritidis counts at 5 min (S. enteritidis) [log CFU/ml] | S. enteritidis counts at 10 min (S. enteritidis) [log CFU/ml] | S. enteritidis counts at 20 min (S. enteritidis) [log CFU/ml] | S. enteritidis counts at 30 min (S. enteritidis) [log CFU/ml] | L. monocytogenes counts at 0 min (L. monocytogenes) [log CFU/ml] | L. monocytogenes counts at 2 min (L. monocytogenes) [log CFU/ml] | L. monocytogenes counts at 5 min (L. monocytogenes) [log CFU/ml] | L. monocytogenes counts at 10 min (L. monocytogenes) [log CFU/ml] | L. monocytogenes counts at 20 min (L. monocytogenes) [log CFU/ml] | L. monocytogenes counts at 30 min (L. monocytogenes) [log CFU/ml] | also measured
[Ca+2].[O-]Cl.[O-]Cl [50 ppm calcium hypochlorite] |  |  |  |  |  |  |  |  |  |  |  |  | Salmonella counts after treatment ([1]; left breast): 7.0 log CFU/9 cm^2 and 8.7 log CFU/9 cm^2 and 7.9 log CFU/9 cm^2 and 8.1 log CFU/9 cm^2; Salmonella counts after treatment ([1]; left wing): 7.6 log CFU/9 cm^2 and 8.0 log CFU/9 cm^2 and 8.1 log CFU/9 cm^2 and 8.8 log CFU/9 cm^2 and 8.5 log CFU/9 cm^2; Salmonella counts after treatment ([1]; neck): 7.9 log CFU/9 cm^2 and 8.9 log CFU/9 cm^2 and 8.5 log CFU/9 cm^2 and 8.1 log CFU/9 cm^2; Salmonella counts after treatment ([1]; right breast): 7.9 log CFU/9 cm^2 and 8.3 log CFU/9 cm^2 and 8.0 log CFU/9 cm^2 and 8.5 log CFU/9 cm^2 and 7.8 log CFU/9 cm^2; Salmonella counts after treatment ([1]; right wing): 8.4 log CFU/9 cm^2 and 8.0 log CFU/9 cm^2 and 7.6 log CFU/9 cm^2
CC(=O)CCC(=O)O [1.5% levulinic acid (pH 2.8), levulinic acid] | 6.7 | 6.7 | 6.8 | 6.7 | 6.4 | 6.5 | 6.9 ± 0.1 | 6.9 ± 0.2 | 6.9 ± 0.3 | 6.9 ± 0.1 | 6.9 ± 0.3 | 6.8 ± 0.3 | 
CC(=O)CCC(=O)O [2.0% levulinic acid (pH 2.8), levulinic acid] | 6.7 | 6.7 | 6.7 | 6.8 | 6.5 | 6.0 | 6.8 ± 0.3 | 6.8 ± 0.2 | 6.9 ± 0.2 | 6.7 ± 0.2 | 6.9 ± 0.2 | 6.8 ± 0.2 | 
CC(=O)CCC(=O)O [1.0% levulinic acid (pH 2.9), levulinic acid] | 6.9 | 6.7 | 6.8 | 6.9 | 6.9 | 6.7 | 6.8 ± 0.3 | 6.7 ± 0.2 | 6.6 ± 0.3 | 6.6 ± 0.3 | 6.6 ± 0.0 | 6.6 ± 0.3 | 
CC(=O)CCC(=O)O [2.5% levulinic acid (pH 2.6), levulinic acid] | 6.9 | 6.8 | 6.9 | 6.4 | 5.8 | 4.8 |  |  |  |  |  |  | 
CC(=O)CCC(=O)O [3.0% levulinic acid (pH 2.7), levulinic acid] | 6.6 | 6.8 | 6.5 | 6.2 | 5.1 | 3.8 |  |  |  |  |  |  | CFU % recovery (as compared to control flask F), 0 min [2]: 89% and 70% and 75%; CFU % recovery (as compared to control flask F), 10 min [2]: 81%; CFU % recovery (as compared to control flask F), 45 min [2]: 55%; CFU % recovery (as compared to control flask F), 1 h [2]: 54% and 78% and 80% and 58%; CFU % recovery (as compared to control flask F), 90 min [2]: 64%; CFU % recovery (as compared to control flask F), 2 h [2]: 27% and 45% and 46% and 34%
CCCCCCCCCCCCOS(=O)(=O)[O-].[Na+] [E] |  |  |  |  |  |  |  |  |  |  |  |  | CFU % recovery (as compared to control flask F), 10 min [2]: 65%; CFU % recovery (as compared to control flask F), 45 min [2]: 94%; CFU % recovery (as compared to control flask F), 90 min [2]: 144%; CFU % recovery (as compared to control flask F), 2 h [2]: 87% and 74% and 103% and 53%; CFU % recovery (as compared to control flask F), 180 min [2]: 95%; CFU % recovery (as compared to control flask F), 3 h [2]: 98% and 68% and 113% and 71%; effectiveness versus water control F [2]: not more effective than the water control F; recovery levels over time [2]: did not decrease
CC(=O)CCC(=O)O [0.5% levulinic acid (pH 2.6), levulinic acid] | 7.1 | 6.8 | 6.9 | 6.9 | 6.6 | 6.7 | 6.7 ± 0.2 | 6.7 ± 0.1 | 6.8 ± 0.3 | 6.9 ± 0.2 | 6.7 ± 0.2 | 6.8 ± 0.2 | S. typhimurium DT 104 counts at 0 min (S. typhimurium DT 104): 6.8 log CFU/ml; S. typhimurium DT 104 counts at 1 min (S. typhimurium DT 104): 6.7 log CFU/ml; S. typhimurium DT 104 counts at 2 min (S. typhimurium DT 104): 6.6 log CFU/ml; S. typhimurium DT 104 counts at 5 min (S. typhimurium DT 104): 6.5 log CFU/ml; S. typhimurium DT 104 counts at 10 min (S. typhimurium DT 104): 6.7 log CFU/ml; S. typhimurium DT 104 counts at 20 min (S. typhimurium DT 104): 6.6 log CFU/ml; S. typhimurium DT 104 counts at 30 min (S. typhimurium DT 104): 6.4 log CFU/ml; S. typhimurium DT 104 counts at 60 min (S. typhimurium DT 104): 5.9 log CFU/ml
CC(=O)CCC(=O)O [0.1% levulinic acid (pH 2.5), levulinic acid] | 7.1 | 7.1 | 6.9 | 7.0 | 6.9 | 6.9 |  |  |  |  |  |  | 
CCCCCCCCCCCCOS(=O)(=O)[O-].[Na+] [0.05% sodium dodecyl sulfate (pH 4.4), sodium dodecyl sulfate] | 7.1 | 7.0 | 7.2 | 7.1 | 7.2 | 7.1 |  |  |  |  |  |  | S. typhimurium DT 104 counts at 0 min (S. typhimurium DT 104): 7.0 log CFU/ml; S. typhimurium DT 104 counts at 1 min (S. typhimurium DT 104): 7.0 log CFU/ml; S. typhimurium DT 104 counts at 2 min (S. typhimurium DT 104): 6.8 log CFU/ml; S. typhimurium DT 104 counts at 5 min (S. typhimurium DT 104): 6.9 log CFU/ml; S. typhimurium DT 104 counts at 10 min (S. typhimurium DT 104): 6.8 log CFU/ml; S. typhimurium DT 104 counts at 20 min (S. typhimurium DT 104): 6.9 log CFU/ml; S. typhimurium DT 104 counts at 30 min (S. typhimurium DT 104): 6.9 log CFU/ml; S. typhimurium DT 104 counts at 60 min (S. typhimurium DT 104): 6.9 log CFU/ml; Salmonella reduction (S. enteritidis): did not reduce Salmonella cell numbers; L. monocytogenes counts at 0 min (L. monocytogenes; 21° C.): 6.6 ± 0.3 log CFU/ml; L. monocytogenes counts at 2 min (L. monocytogenes; 21° C.): 6.4 ± 0.1 log CFU/ml; L. monocytogenes counts at 5 min (L. monocytogenes; 21° C.): 6.0 ± 0.1 log CFU/ml; L. monocytogenes counts at 10 min (L. monocytogenes; 21° C.): 5.0 ± 0.3 log CFU/ml; L. monocytogenes counts at 20 min (L. monocytogenes; 21° C.): 3.8 ± 0.2 log CFU/ml; L. monocytogenes counts at 30 min (L. monocytogenes; 21° C.): 3.3 ± 0.1 log CFU/ml
CC(=O)O [0.5% acetic acid (pH 3.1), acetic acid] | 7.1 | 7.0 | 6.8 | 6.7 | 6.6 | 6.5 |  |  |  |  |  |  | 

From patent US8722123B2, “Antimicrobial composition and use as food treatment” (priority 2008, dated 2014)
